In patent publication EP3597653A1, “CYCLIC INHIBITORS OF HEPATITIS B VIRUS” (IRBM S.P.A., priority 2018, dated 2020):
pEC50: −log10 of the molar value.

system: HBV; assay: HBV inhibition assay in HepAD38 cells (extracellular HBV DNA by direct qPCR); type: cell-based; conditions: Hepatitis B virus, 8-point dose-response curve, 96 hours, read-out: HBV inh EC50
Text: HepAD38 cell line (Ladner et al., Antimicrob Agents Chemother, 1997, 41, 1715-20) was used for HBV inhibition assays. HepAD38 is a subclone, derived from Hepatoblastoma cell line HepG2 (ATCC® Number: HB-8065™), that expresses HBV genome under the control of a tetracycline-responsive promoter in a TET-OFF system: addition of tetracycline suppresses HBV replication, while its removal switches on the process allowing HBV viral particles release in the cell supernatant. HepAD38 cell line is maintained in DMEM/F12, supplemented with 10% of fetal bovine serum, 1% of glutamine, 1% of penicillin/streptomycin, 0.4 mg/ml G418 and 0,3 ug/ml tetracycline. For the HBV inhibition assay, doxycycline-free medium is used in order to allow virion production.
HBV inhibition activity in vitro was performed in 96 multiwell plates. During the initial (primary) screening compounds were first tested in triplicates at concentrations of 0.1µM, 0.5µM amd 1µM. For selected compounds, an 8-point dose-response curve can be obtained using 1:2 serial dilutions (starting from 2.5 µM, 1.25µM or 0.4 µM, depending on the degree of inhibition observed during the primary screening). From the dose-response curves, half maximal effective concentration (EC50) can be calculated (see also below).
In more detail, compounds - typically dissolved in DMSO stock solutions - are diluted to 2x the final desired concentration in 100 µl of the above medium (without doxycycline) and plated in three replicates in the 96-well plates.
Simultaneously, HepAD38 cells - extensively pre-washed in tetracycline-free medium in order to induce HBV production - are suspended at 2*10^4 cells in 100 µl of tetracycline-free medium and added to each well of the plate, to yield a final assay volume of 200 µl DMSO - used for stock solutions and compounds dilutions - which is always present in the assays at a final concentration of 0.5%.
Plates are then incubated 96 hours at 37°C and then subjected to cell viability assay in order to define compounds cytotoxicity and to extracellular HBV quantification in order to evaluate antiviral activity of compounds. Cytotoxicity is assessed by a commercial fluorescence assay that measures the metabolic activity of cells, directly related to cell viability (Cell Titer Blue, Promega). Anti-HBV activity was evaluated by quantification of extracellular HBV DNA with direct qPCR. In particular, supernatant was collected and centrifuged for cell debris clarification, viral DNA was extracted from virions by addition of lysis buffer (1 mM 1,4-dithiothreitol, 0.2% sodium dodecyl sulphate) and incubated at 95°C for 10 min. Samples were then diluted 1:40 and real time PCR amplification was performed with SYBR green assay (Power SYBR™ Green PCR Master Mix-Thermo Fisher Scientific) and specific HBV primer (HBV-DF:5'-[…]-3' (SEQ ID No. 1), HBV-DR:5'-[…]-3' (SEQ ID No. 2)).
All HBV inhibition or antiviral activity data are typically reported in percent (%) relative to a non-treated reference sample. Excel and Graphpad Prism programs are typically used for data elaboration and EC50 calculation.

Row | Compound | pEC50
1 | O=C(Nc1cc(F)c(F)c(F)c1)c1ccc2c(c1)S(=O)(=O)N[C@]1(N2)C(=O)Nc2ccccc21 (single isomer, unassigned) [Example E129] | < 6.00
2 | O=C(Nc1cc(F)c(F)c(F)c1)c1ccc2c(c1)S(=O)(=O)N[C@@]1(N2)C(=O)Nc2ccccc21 (single isomer, unassigned) [Example E130] | > 6.00
3 | O=C(Nc1cc(F)c(F)c(F)c1)c1cc2c(cc1Cl)NCNS2(=O)=O [Example E7, 6-chloro-N-(3,4,5-trifluorophenyl)-3,4-dihydro-2H-benzo[e][1,2,4]thiadiazine-7-carboxamide 1,1-dioxide] | > 6.00
4 | CC1Nc2cc(Cl)c(C(=O)Nc3cc(F)c(F)c(F)c3)cc2S(=O)(=O)N1 (stereo not shown) [Example E10, 6-chloro-3-methyl-N-(3,4,5-trifluorophenyl)-3,4-dihydro-2H-benzo[e][1,2,4]thiadiazine-7-carboxamide 1,1-dioxide] | > 6.00
5 | CC1Nc2ccc(C(=O)Nc3cc(F)c(F)c(F)c3)cc2S(=O)(=O)N1 (stereo not shown) [Example E21, 3-methyl-N-(3,4,5-trifluorophenyl)-3,4-dihydro-2H-benzo[e][1,2,4]thiadiazine-7-carboxamide 1,1-dioxide] | > 6.00

same assay, conditions: Hepatitis B virus, compound at 0.5 µM, 96 hours, relative to non-treated reference, read-out: Anti HBV Activity (conc µM)

Row | Compound | inhibition at 0.5 µM [%]
6 | O=C(Nc1cc(F)c(F)c(F)c1)c1ccc2c(c1)S(=O)(=O)NC1(N2)C(=O)Nc2ccccc21 (racemic) [Example E56, 2'-oxo-N-(3,4,5-trifluorophenyl)-2H,4H-spiro[benzo[e][1,2,4]thiadiazine-3,3'-indoline]-7-carboxamide 1,1-dioxide] | > 50
7 | [2H]C1([2H])Nc2ccc(C(=O)Nc3cc(F)c(F)c(F)c3)cc2S(=O)(=O)N1 [Example E2, N-(3,4,5-trifluorophenyl)-3,4-dihydro-2H-benzo[e][1,2,4]thiadiazine-3,3-d2-7-carboxamide 1,1-dioxide] | > 50
8 | O=C(Nc1cc(F)c(F)c(F)c1)c1ccc2c(c1)S(=O)(=O)NCN2O [Example E4, 4-hydroxy-N-(3,4,5-trifluorophenyl)-3,4-dihydro-2H-benzo[e][1,2,4]thiadiazine-7-carboxamide 1,1-dioxide] | < 50
9 | O=C(Nc1cc(F)c(F)c(F)c1)c1ccc2c(c1)S(=O)(=O)N(O)CN2 [Example E5, 2-hydroxy-N-(3,4,5-trifluorophenyl)-3,4-dihydro-2H-benzo[e][1,2,4]thiadiazine-7-carboxamide 1,1-dioxide] | < 50
10 | Cc1cc2c(cc1C(=O)Nc1cc(F)c(F)c(F)c1)S(=O)(=O)NCN2 [Example E9, 6-methyl-N-(3,4,5-trifluorophenyl)-3,4-dihydro-2H-benzo[e][1,2,4]thiadiazine-7-carboxamide 1,1-dioxide] | > 50
11 | O=C(Nc1cc(F)c(F)c(F)c1)c1ccc2c(c1)S(=O)(=O)NC1(CCNCC1)N2 [Example E14, N-(3,4,5-trifluorophenyl)-2H,4H-spiro[benzo[e][1,2,4]thiadiazine-3,4'-piperidine]-7-carboxamide 1,1-dioxide] | > 50
12 | CN1C(C(F)(F)F)Nc2ccc(C(=O)Nc3cc(F)c(F)c(F)c3)cc2S1(=O)=O (stereo not shown) [Example E18, 2-methyl-3-(trifluoromethyl)-N-(3,4,5-trifluorophenyl)-3,4-dihydro-2H-benzo[e][1,2,4]thiadiazine-7-carboxamide1,1-dioxide] | < 50
13 | O=C(Nc1cc(F)c(F)c(F)c1)c1ccc2c(c1)S(=O)(=O)NC(CCO)N2 (stereo not shown) [Example E22, 3-(2-hydroxyethyl)-N-(3,4,5-trifluorophenyl)-3,4-dihydro-2H-benzo[e][1,2,4]thiadiazine-7-carboxamide 1,1-dioxide] | > 50
14 | C[C@H](O)C1Nc2ccc(C(=O)Nc3cc(F)c(F)c(F)c3)cc2S(=O)(=O)N1 (stereo partly drawn) [Example E23, 3-((S)-1-hydroxyethyl)-N-(3,4,5-trifluorophenyl)-3,4-dihydro-2H-benzo[e][1,2,4]thiadiazine-7-carboxamide 1,1-dioxide] | > 50
15 | C[C@@H](O)C1Nc2ccc(C(=O)Nc3cc(F)c(F)c(F)c3)cc2S(=O)(=O)N1 (stereo partly drawn) [Example E24, 3-((R)-1-hydroxyethyl)-N-(3,4,5-trifluorophenyl)-3,4-dihydro-2H-benzo[e][1,2,4]thiadiazine-7-carboxamide 1,1-dioxide] | > 50
16 | C[C@H](O)C1=NS(=O)(=O)c2cc(C(=O)Nc3cc(F)c(F)c(F)c3)ccc2N1 [Example E25, (S)-3-(1-hydroxyethyl)-N-(3,4,5-trifluorophenyl)-4H-benzo[e][1,2,4]thiadiazine-7-carboxamide1,1-dioxide] | < 50

same assay, conditions: Hepatitis B virus, compound at 1 µM, 96 hours, relative to non-treated reference, read-out: Anti HBV Activity (conc µM)

Row | Compound | inhibition at 1 µM [%]
17 | O=C(Nc1cc(F)c(F)c(F)c1)c1ccc2c(c1)S(=O)(=O)NCN2 [Example E1, N-(3,4,5-trifluorophenyl)-3,4-dihydro-2H-benzo[e][1,2,4]thiadiazine-7-carboxamide 1,1-dioxide] | > 50
18 | CN1CNS(=O)(=O)c2cc(C(=O)Nc3cc(F)c(F)c(F)c3)ccc21 [Example E3, 4-methyl-N-(3,4,5-trifluorophenyl)-3,4-dihydro-2H-benzo[e][1,2,4]thiadiazine-7-carboxamide 1,1-dioxide] | < 50
19 | CN1CNc2ccc(C(=O)Nc3cc(F)c(F)c(F)c3)cc2S1(=O)=O [Example E6, 2-methyl-N-(3,4,5-trifluorophenyl)-3,4-dihydro-2H-benzo[e][1,2,4]thiadiazine-7-carboxamide 1,1-dioxide] | < 50
20 | O=C(Nc1cc(F)c(F)c(F)c1)c1cc2c(cc1Br)NCNS2(=O)=O [Example E8, 6-bromo-N-(3,4,5-trifluorophenyl)-3,4-dihydro-2H-benzo[e][1,2,4]thiadiazine-7-carboxamide 1,1-dioxide] | > 50
21 | O=C(Nc1ccc(F)c(F)c1)c1ccc2c(c1)S(=O)(=O)NC1(COC1)N2 [Example E11, N-(3,4-difluorophenyl)-2H,4H-spiro[benzo[e][1,2,4]thiadiazine-3,3'-oxetane]-7-carboxamide 1,1-dioxide] | < 50
22 | O=C(Nc1ccc(F)c(F)c1)c1ccc2c(c1)S(=O)(=O)NC1(CCC1)N2 [Example E12, N-(3,4-difluorophenyl)-2H,4H-spiro[benzo[e] [1,2,4]thiadiazine-3,1'-cyclobutane]-7-carboxamide 1,1-dioxide] | > 50
23 | O=C(Nc1cc(F)c(F)c(F)c1)c1ccc2c(c1)S(=O)(=O)NC1(CCOCC1)N2 [Example E13, N-(3,4,5-trifluorophenyl)-2',3',5',6'-tetrahydro-2H,4H-spiro[benzo[e] [1,2,4]thiadiazine-3,4'-pyran]-7-carboxamide1,1-dioxide] | > 50
24 | O=C(Nc1cc(F)c(F)c(F)c1)c1ccc2c(c1)S(=O)(=O)NC(C(F)(F)F)N2 (stereo not shown) [Example E15, 3-(trifluoromethyl)-N-(3,4,5-trifluorophenyl)-3,4-dihydro-2H-benzo[e][1,2,4]thiadiazine-7-carboxamide1,1-dioxide] | < 50
25 | CC(C)OCCC1Nc2ccc(C(=O)Nc3cc(F)c(F)c(F)c3)cc2S(=O)(=O)N1 (stereo not shown) [Example E16, 3-(2-isopropoxyethyl)-N-(3,4,5-trifluorophenyl)-3,4-dihydro-2H-benzo[e][1,2,4]thiadiazine-7-carboxamide 1,1-dioxide] | > 50
26 | O=C(Nc1cc(F)c(F)c(F)c1)c1ccc2c(c1)S(=O)(=O)NC(C(F)F)N2 (stereo not shown) [Example E17, 3-(difluoromethyl)-N-(3,4,5-trifluorophenyl)-3,4-dihydro-2H-benzo[e][1,2,4]thiadiazine-7-carboxamide1,1-dioxide] | > 50
27 | O=C(Nc1ccc(F)c(F)c1)c1ccc2c(c1)S(=O)(=O)NCN2 [Example E19, N-(3,4-difluorophenyl)-3,4-dihydro-2H-benzo[e][1,2,4]thiadiazine-7-carboxamide 1,1-dioxide] | > 50
28 | CC1Nc2ccc(C(=O)Nc3ccc(F)c(F)c3)cc2S(=O)(=O)N1 (stereo not shown) [Example E20, N-(3,4-difluorophenyl)-3-methyl-3,4-dihydro-2H-benzo[e][1,2,4]thiadiazine-7-carboxamide 1,1-dioxide] | > 50
